Data as given in PubChem BioAssay (NCI).
“And” between values parts separate entries of the source, which are not always exact repeats. Equal values may be shown once.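 Following 48 hours of exposure in 96-well plates, responses at five concentrations were used to interpolate endpoints linearly. At the GI50, growth is halved. TGI marks complete inhibition of growth.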

Columns and labels:
Experiment in all cases: NCI-60 cell line screen, 48 h
[1] = system: BT-549 breast
[2] = system: HCT-15 colon
[3] = system: SK-MEL-5 melanoma
[4] = system: HS 578T breast
[5] = system: SNB-75 CNS
[6] = system: MDA-MB-435
[7] = system: SF-268 CNS
[8] = system: TK-10 renal

SMILES	GI50 [1]	TGI [1]	GI50 [2]	TGI [2]	GI50 [3]	TGI [3]	GI50 [4]	TGI [4]	GI50 [5]	TGI [5]	GI50 [6]	TGI [6]	GI50 [7]	TGI [7]	GI50 [8]	TGI [8]
Oc1ccc(Cl)cc1CNc1nc2ccccc2[nH]1	9.05 µM	23.3 µM	11.5 µM	26.1 µM	13 µM	25.6 µM	13600 nM	42.1 µM	4580 nM	21.6 µM	13200 nM	26.2 µM	14.3 µM	30.2 µM	15.7 µM	31.2 µM
Cc1nc(Nc2nc3ccccc3o2)nc(-c2cccc([N+](=O)[O-])c2)c1C(=O)Nc1ccc(F)c(Cl)c1	3.08 µM	68.4 µM	2.29 µM	> 100 µM	1.71 µM	3.45 µM	2870 nM	38.8 µM	2270 nM	9.62 µM	2160 nM	8.01 µM	3.3 µM	> 100 µM	2.07 µM	12.2 µM
O=C(Nc1ccc(Cl)c(Cl)c1)OCCN1c2ccccc2Sc2ccccc21		> 10 µM		> 10 µM		> 10 µM		> 10 µM		> 10 µM		> 10 µM		> 10 µM		> 10 µM
CSc1cccc(NC(=O)OC2CCCCCCCCCCC2)c1		> 100 µM		> 100 µM		29.1 µM		> 100 µM		> 100 µM		39.9 µM		> 100 µM		75.1 µM
C=C1c2c(Cl)ccc(O)c2C(O)=C2C(=O)[C@]3(O)C(O)=C(C(N)=O)C(=O)[C@@H](N(C)C)[C@@H]3[C@@H](O)[C@H]12	1.07 µM	3.24 µM	1.44 µM	> 50 µM	0.801 µM	1.57 µM	1240 nM	9.68 µM	845 nM	3.61 µM	1530 nM	7.97 µM	1.41 µM	7.16 µM	0.656 µM	3.41 µM
COc1cc2c3c(n(CCCN=[N+]=[N-])c(=O)c2cc1OC)-c1ccc(N(C)C)cc1C3=O	> 100 µM	> 100 µM	> 100 µM	> 100 µM	87.1 µM	> 100 µM	> 100000 nM	> 100 µM	55900 nM	> 100 µM	> 100000 nM	> 100 µM	> 100 µM	> 100 µM	> 100 µM	> 100 µM
COc1cc2c(c(OC3OC(CO)C(O)C(O)C3O)c1)C(=O)CC(c1ccc(O)cc1)O2 (stereo unspecified)		> 100 µM		> 100 µM		> 100 µM		> 100 µM		> 100 µM		> 100 µM		> 100 µM		> 100 µM
CN(C)CCN1C(=O)c2cccc3cccc(c23)C1=O	> 25 µM	> 25 µM	11.4 µM	> 25 µM	18.4 µM	> 25 µM	> 25000 nM	> 25 µM	> 25000 nM	> 25 µM	> 25000 nM	> 25 µM	18.9 µM	> 25 µM	12.3 µM	> 25 µM
NCCSCCc1ccccc1		> 100 µM		> 100 µM		> 100 µM		> 100 µM		> 100 µM		> 100 µM		> 100 µM		> 100 µM
Cc1cccc(Nc2cnc(N)nc2N)c1				> 100 µM		> 100 µM				> 100 µM		> 100 µM				> 100 µM
COc1ccc2nc(NC(=O)c3cccnc3Nc3cc(OC)c(OC)c(OC)c3)sc2c1	11.6 µM	28.2 µM	11.2 µM	85.6 µM	11.3 µM	47.7 µM	5770 nM	30.9 µM	2890 nM	12.8 µM	1850 nM	10.4 µM	4.43 µM	18.9 µM	4.31 µM	14.1 µM
COc1ccc(-c2nn(-c3cccc(NC(=O)c4ccc(N5CCOCC5)c(C(F)(F)F)c4)c3)cc2-c2ccncc2)cc1Cl	4.14 µM	> 50 µM	2.99 µM	> 50 µM	6.4 µM	> 50 µM	2650 nM	> 50 µM	797 nM	4.95 µM	2600 nM	35 µM	13.3 µM	> 50 µM	> 50 µM	> 50 µM
CC1=C(/C=C/C(C)=C/C=C/C(C)=C/CO)C(C)(C)CCC1				> 100 µM		32 µM						62.4 µM		52 µM		
O=[N+]([O-])c1ccc(S(=O)(=O)Cc2ccccc2)c2nonc12		33.1 µM		51.7 µM		36.5 µM		58.5 µM		98.5 µM		40.4 µM		39.3 µM		32 µM
OCCN1CCN(CC/C=C2\c3ccccc3Sc3ccc(Cl)cc32)CC1	7.89 µM	22.4 µM	1.84 µM and 2 µM	3.64 µM and 4.29 µM	1.61 µM and 1.67 µM	3.01 µM and 3.04 µM	2430 nM and 2250 nM	7.02 µM and 7.94 µM	1410 nM and 2700 nM	5.07 µM and 7.95 µM	1990 nM and 2010 nM	4.78 µM and 4.63 µM	2.58 µM and 4.5 µM	10.9 µM and 15.1 µM	4.59 µM and 2.07 µM	19.4 µM and 5.62 µM
O=C1OC(OCC#CCOC2OC(=O)C(Cl)=C2Cl)C(Cl)=C1Cl (stereo unspecified)				27.3 µM		43.4 µM		50.5 µM		28.4 µM		27.2 µM		46.8 µM		21.8 µM
O=C1CC(c2ccc(Cl)cc2)Oc2ccccc21 (stereo unspecified)				48 µM		27.3 µM		54.8 µM		50.1 µM		> 100 µM		> 100 µM		63.4 µM
O=C1C=CC(O)C2C1CC13SSC4(CC5C(=O)C=CC(O)C5N4C1=O)C(=O)N23 (stereo unspecified)		3.65 µM		0.794 µM		1.06 µM		2.26 µM		5.14 µM		0.434 µM		5.85 µM		1.81 µM
CC(C)CCN[C@@H]1CCc2cc(O)c(N3CC(=O)NS3(=O)=O)c(F)c2C1	5.44 µM	> 100 µM	> 100 µM	> 100 µM	> 100 µM	> 100 µM	> 100000 nM	> 100 µM	1170 nM	> 100 µM	> 100000 nM	> 100 µM	> 100 µM	> 100 µM	> 100 µM	> 100 µM
Cn1cnc([N+](=O)[O-])c1Sc1ncn[nH]1	> 100 µM	> 100 µM	70.1 µM	> 100 µM	> 100 µM	> 100 µM	52800 nM	> 100 µM	> 100000 nM	> 100 µM	> 100000 nM	> 100 µM	> 100 µM	> 100 µM	98.2 µM	> 100 µM
